Experimental data: US10774124B2, “Protease resistant mutants of stromal cell derived factor-1 in the repair of tissue damage” (THE BRIGHAM AND WOMEN'S HOSPITAL, INC., priority 2006, dated 2020)
Where two headings read alike, the source gives them in different places. No end group written: not given here.

How the values were obtained:
[1] = biological target: CXC chemokine receptor 4 (CXCR4) (Homo sapiens, UniProt P61073); conditions: cited from earlier work
[2] = tested on: T lymphocytes and CEM cells; conditions: cited from earlier work; for induce chemotaxis: T lymphocytes and CEM cells; for fold less potent than SDF-1: chemoattractant activity, relative to native SDF-1; for EC50: read-out: half-maximal chemoattractant activity
[3] = tested on: T lymphocytes and CEM cells; conditions: cited from earlier work
MMP-2 [4] = biological target: T1, MMP-2 (Homo sapiens, UniProt P08253); assay: MMP-2 cleavage, incubation product examined by SDS-PAGE; type: biochemical; conditions: for cleavage by MMP-2 (SDS-PAGE): 2 nmole peptide incubated with MMP-2 for 1 h at RT
T1 sequence (P08253 110-660): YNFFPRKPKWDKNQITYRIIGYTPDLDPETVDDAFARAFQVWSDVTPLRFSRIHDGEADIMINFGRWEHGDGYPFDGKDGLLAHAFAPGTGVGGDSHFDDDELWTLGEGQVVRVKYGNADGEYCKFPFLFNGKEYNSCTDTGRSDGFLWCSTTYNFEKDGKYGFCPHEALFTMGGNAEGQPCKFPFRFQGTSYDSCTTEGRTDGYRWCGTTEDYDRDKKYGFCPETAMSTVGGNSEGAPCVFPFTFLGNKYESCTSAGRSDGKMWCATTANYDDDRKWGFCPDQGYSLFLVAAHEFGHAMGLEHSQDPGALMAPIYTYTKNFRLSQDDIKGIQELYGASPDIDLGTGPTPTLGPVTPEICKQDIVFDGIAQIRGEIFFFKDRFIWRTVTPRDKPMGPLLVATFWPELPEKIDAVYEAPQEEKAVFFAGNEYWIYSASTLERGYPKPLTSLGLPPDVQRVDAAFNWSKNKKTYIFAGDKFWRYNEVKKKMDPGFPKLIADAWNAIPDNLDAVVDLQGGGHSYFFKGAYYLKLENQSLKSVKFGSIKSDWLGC
Procedure: The susceptibility of the peptides to cleavage by MMP-2 was determined by incubating the mutants with the enzyme for one hour and then examining the incubation product by SDS-PAGE.
Cleavage experiments of the peptides with MMP-2 were performed: 2 nmole of SDF-1 17AA, SDF-1(S4V) 17AA, and SDF-1(L5P) 17AA were incubated with MMP-2 for 1 h at RT. Proteins were run on an SDS-PAGE showing cleavage of SDF-1 17AA, but not of SDF-1(S4V) 17AA or SDF-1(L5P) 17AA. Thus, these truncated proteins may be useful therapeutically, as they are still bioactive and also MMP-2 resistant.

Jurkat T cells = assay: Jurkat T cell migration assay; type: cell-based; conditions: for activity on T-cell migration: compared to native SDF-1; for activity in promoting T cell migration: concentration of 100 nM, versus unmutated SDF-1
Procedure: Cells from a 4-L growth were lysed in 300 ml lysis buffer (6M Guanidine, 20 mM phosphate (pH 7.8), 500 mM NaCl) and homogenized. Debris is collected by centrifugation at 3000 g. The first purification step consisted of capture of the poly-histidine tag present in the SUMO-SDF-1α fusion protein with Nickel-NTA. Nickel-NTA resin was washed with wash buffer (8M Urea, 500 mM NaCl, 20 mM phosphate (pH 6.2)) and the bound protein was eluted at pH 4. Further purification and oxidative refolding were performed on a Cation Exchange HPLC column. The sample was adjusted to binding buffer (8M Urea, 30 mM 2-mercaptoethanol, 1 mM EDTA, 50 mM Tris pH8) and loaded on the HPLC column. Refolding of Sumo-SDF-1 was performed on the column with a 2 h run of refolding buffer (50 mM Tris pH8, 75 mM NaCl, 0.1 mM reduced Glutathione and 0.1 mM oxidized Glutathione). Sumo-SDF-1 was eluted with a step gradient (0.5 to 1M NaCl) and concentrated. The SUMO-SDF-1 fusion protein was cleaved by Sumo Protease 1 (IU/50 μg protein) in 50 mM Tris pH 8.0, 500 mM NaCl. The sample was adjusted to 0.1% trifluoroacetic acid (TFA) and loaded on a C18 Reversed Phase HPLC column for the final purification step. The column was subjected to a linear gradient from 30 to 40% acetonitrile in 0.1% TFA. The fractions containing SDF-1 were lyophilized and resuspended. Activity of purified SDF-1 was tested by migration of Jurkat T-lymphocyte cell line.
The mutated forms of SDF-1 were examined in an assay of migration of Jurkat T cells at a concentration of 100 nM.
Migration experiments were performed with the Jurkat T-lymphocyte cell line. […] Therefore, if 500 times higher concentrations were used compared to full-length protein, the same migratory response of T-lymphocytes should be observed. […] This is a similar shift to that seen between native SDF-1 and SDF-1(S4V).

MMP-2 [5] = biological target: T1, MMP-2; assay: Jurkat T-cell migration assay after MMP-2 incubation; type: cell-based

Chain of CXC chemokine receptor 4 (CXCR4) (P61073 whole entry): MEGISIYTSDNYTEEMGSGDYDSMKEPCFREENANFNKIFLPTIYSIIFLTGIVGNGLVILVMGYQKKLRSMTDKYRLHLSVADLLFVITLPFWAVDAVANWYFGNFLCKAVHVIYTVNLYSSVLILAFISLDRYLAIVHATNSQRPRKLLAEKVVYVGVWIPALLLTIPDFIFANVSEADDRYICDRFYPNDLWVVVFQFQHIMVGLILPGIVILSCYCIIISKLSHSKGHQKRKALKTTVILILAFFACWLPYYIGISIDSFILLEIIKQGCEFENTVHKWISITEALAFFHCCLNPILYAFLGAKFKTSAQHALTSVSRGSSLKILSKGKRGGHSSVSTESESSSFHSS

| Substance | bind to CXCR4 [1] | induce chemotaxis [2] | induce intracellular calcium [3] | activity on T-cell migration (Jurkat T cells) | activity in promoting T cell migration (Jurkat T cells) | also measured |
| --- | --- | --- | --- | --- | --- | --- |
| 1-8: peptide of N-terminal residues 1-8 of SDF-1 (KPVSLSYR; UniProt P48061 22-29, looked up, fragment) | bind | induce | induce | – | – | – |
| 1-9 dimer: dimer of the SDF-1 1-9 peptide (KPVSLSYRC; also: dimer; UniProt P48061 22-30, looked up, fragment) | bind | induce | induce | – | – | fold less potent than SDF-1 [2]: 100 fold; EC50 [2]: 0.5 µM |
| 1-9: peptide of N-terminal residues 1-9 of SDF-1 (KPVSLSYRC; UniProt P48061 22-30, looked up, fragment) | bind | induce | induce | – | – | fold less potent than SDF-1 [2]: 3600 fold |
| 1-17: peptide of N-terminal residues 1-17 of SDF-1 (KPVSLSYRCPCRFFESH; UniProt P48061 22-38, looked up, fragment) | bind | induce | induce | – | – | fold less potent than SDF-1 [2]: 400 fold |
| SCR: GIVGPL (SEQ ID NO:58), linker sequence, a scrambled version of the MMP-2 cleavage site MCS (listed as Homo sapiens) | – | – | – | – | – | MMP-2 cleavage of linker sequence (MMP-2 [4]; rate compared with MCS): undergo MMP-2 cleavage, although at a slower rate than MCS |
| SDF-1 17AA: KPVSLSYRCPCRFFESH (SEQ ID 64), first 17 amino acids of native SDF-1 (listed as Homo sapiens) | – | – | – | – | – | times less potent than native SDF-1 (Jurkat T cells; Jurkat T-lymphocyte migration): 500 times; cleavage by MMP-2 (SDS-PAGE) (MMP-2 [4]): cleavage |
| SDF-1(L5E): SDF-1 mutant, leucine at position 5 changed to glutamic acid | – | – | – | minimal activity | greatly reduced | – |
| SDF-1(L5P) 17AA: KPVSPSYRCPCRFFESH (SEQ ID 66) (listed as Homo sapiens) | – | – | – | – | – | times less potent than SDF-1 17AA without mutation (Jurkat T cells; Jurkat T-lymphocyte migration): three times less potent; cleavage by MMP-2 (SDS-PAGE) (MMP-2 [4]): not |
| SDF-1(L5P): SDF-1 mutant, leucine at position 5 changed to proline, SEQ ID NO:56 | – | – | – | bioactivity comparable to native SDF-1 | retained most of the activity of unmutated SDF-1 | – |
| SDF-1(L5W): SDF-1 mutant, leucine at position 5 changed to tryptophan | – | – | – | minimal activity | greatly reduced | – |
| SDF-1(S4V) 17AA: KPVVLSYRCPCRFFESH (SEQ ID 65) (listed as Homo sapiens) | – | – | – | – | – | times less potent than SDF-1 17AA without mutation (Jurkat T cells; Jurkat T-lymphocyte migration): three times less potent; cleavage by MMP-2 (SDS-PAGE) (MMP-2 [4]): not |
| SDF-1(S4V): SDF-1 mutant, serine at position 4 changed to valine, SEQ ID NO:54 | – | – | – | bioactivity comparable to native SDF-1 | retained most of the activity of unmutated SDF-1 | chemoattractant activity after MMP-2 incubation (MMP-2 [5]): not; chemoattractant activity after MMP-2 incubation (MMP-2 [5]; listed as S4V variant of SDF-1): resistant to activation by MMP-2 |
| stromal cell derived factor-1 [SDF-1] | – | – | – | – | – | chemoattractant activity after MMP-2 incubation (MMP-2 [5]): reduce the chemoattractant activity; cleavage by MMP-2 (positional shift on SDS-PAGE) (MMP-2 [4]; incubated with the enzyme for one hour): positional shift indicative of cleavage; EC50 [2]: 0.005 µM |
